Reference: the supplement of paper PMC6045584
± gives the standard deviation of the averaged measurements.

Columns and labels:
[1] = compound: CC(=O)NCC(=O)N1[C@@H]2CC[C@H]1c1ccc(Nc3ncc(C(F)(F)F)c(NC4CCC4)n3)cc12; assay: surviving fraction relative to DMSO-only wells; higher = less growth inhibition; conditions: exposure time: 5 days
Summary of the method: (§1)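 Continuous five-day exposure to inhibitors at 0.5, 1, 5, 10, 50, 100, 500 and 1000 nM started 24 hours after log-phase tumour cell lines were seeded at 250–500 cells per well in 384-well plates. Luminescence was read after 10 minutes at room temperature. Viability is given as surviving fraction, meaning CellTiter-Glo luminescence normalised to the median of DMSO-only wells.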

PACLITAXEL [2] = compound: T1, CC(=O)O[C@H]1C(=O)[C@@]2(C)[C@H]([C@H](OC(=O)c3ccccc3)[C@]3(O)C[C@H](OC(=O)[C@H](O)[C@@H](NC(=O)c4ccccc4)c4ccccc4)C(C)=C1C3(C)C)[C@]1(OC(C)=O)CO[C@@H]1C[C@@H]2O [PACLITAXEL]; assay: as above; conditions: exposure time: 5 days
Summary of the method: as §1

[3] = compound: CC(=O)c1c(C)c2cnc(Nc3ccc(N4CCNCC4)cn3)nc2n(C2CCCC2)c1=O; assay: as above; conditions: exposure time: 5 days
Summary of the method: as §1

CAMPTOTHECIN [4] = compound: T2, CC[C@@]1(O)C(=O)OCc2c1cc1n(c2=O)Cc2cc3ccccc3nc2-1 [CAMPTOTHECIN]; assay: as above; conditions: exposure time: 5 days
Summary of the method: as §1

YM155 [5] = compound: T3, COCC[n+]1c2c(n(Cc3cnccn3)c1C)C(=O)c1ccccc1C2=O [YM155]; assay: as above; conditions: exposure time: 5 days
Summary of the method: as §1

GEFITINIB [6] = compound: T4, COc1cc2ncnc(Nc3ccc(F)c(Cl)c3)c2cc1OCCCN1CCOCC1 [GEFITINIB]; assay: as above; conditions: exposure time: 5 days
Summary of the method: as §1

OSI-906 [7] = compound: T5, C[C@]1(O)C[C@@H](c2nc(-c3ccc4ccc(-c5ccccc5)nc4c3)c3c(N)nccn32)C1 [OSI-906]; assay: as above; conditions: exposure time: 5 days
Summary of the method: as §1

CELECOXIB [8] = compound: T6, Cc1ccc(-c2cc(C(F)(F)F)nn2-c2ccc(S(N)(=O)=O)cc2)cc1 [CELECOXIB]; assay: as above; conditions: exposure time: 5 days
Summary of the method: as §1

CARBOPLATIN [9] = compound: T7, O=C(O)C1(C(=O)O)CCC1.[NH2-].[NH2-].[Pt+2] [CARBOPLATIN]; assay: as above; conditions: exposure time: 5 days
Summary of the method: as §1

[10] = compound: CC(=O)NCC(=O)N1[C@@H]2CC[C@H]1c1ccc(Nc3ncc(C(F)(F)F)c(NC4CCC4)n3)cc12; assay: area under dose-response curve of surviving fraction (unscaled, Aref=0) (surviving fraction x log10(nM)); higher = more resistant; conditions: exposure time: 5 days; dose range 0.5-1000 nM
Summary of the method: (§2)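 Tumour cell lines in 384-well plates were exposed for five days to eight inhibitor concentrations from 0.5 to 1000 nM. Viability was read by CellTiter-Glo luminescence, normalised to DMSO-only wells, in three screens per line. Dose-response survival curves were fitted to surviving fractions by 3-parameter logistic regression in the drc R package. Area under the curve is the unscaled activity area (Aref = 0) over log10 dose.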

PACLITAXEL [11] = compound: T1, PACLITAXEL; assay: as above; conditions: exposure time: 5 days; dose range 0.5-1000 nM
Summary of the method: as §2

CAMPTOTHECIN [12] = compound: T2, CAMPTOTHECIN; assay: as above; conditions: exposure time: 5 days; dose range 0.5-1000 nM
Summary of the method: as §2

YM155 [13] = compound: T3, YM155; assay: as above; conditions: exposure time: 5 days; dose range 0.5-1000 nM
Summary of the method: as §2

GEFITINIB [14] = compound: T4, GEFITINIB; assay: as above; conditions: exposure time: 5 days; dose range 0.5-1000 nM
Summary of the method: as §2

OSI-906 [15] = compound: T5, OSI-906; assay: as above; conditions: exposure time: 5 days; dose range 0.5-1000 nM
Summary of the method: as §2

CELECOXIB [16] = compound: T6, CELECOXIB; assay: as above; conditions: exposure time: 5 days; dose range 0.5-1000 nM
Summary of the method: as §2

CARBOPLATIN [17] = compound: T7, CARBOPLATIN; assay: as above; conditions: exposure time: 5 days; dose range 0.5-1000 nM
Summary of the method: as §2

SG32 HEADNECK showed a surviving fraction ([1]; 0.5 nM) of 1.19 ± 0.078, a surviving fraction ([1]; 1 nM) of 1.02 ± 0.12 and a surviving fraction ([1]; 5 nM) of 0.952 ± 0.044. For the same test system, the surviving fraction ([1]; 10 nM) was 1.14 ± 0.031, the surviving fraction ([1]; 50 nM) was 0.758 ± 0.26 and the surviving fraction ([1]; 100 nM) was 0.474 ± 0.036. It also gave a surviving fraction ([1]; 500 nM) of 0.432 ± 0.095, a surviving fraction ([1]; 1000 nM) of 0.398 ± 0.023 and a surviving fraction (PACLITAXEL [2]; 0.5 nM) of 0.906 ± 0.26. For the same test system, the surviving fraction (PACLITAXEL [2]; 1 nM) was 0.603 ± 0.093, the surviving fraction (PACLITAXEL [2]; 5 nM) was 0.275 ± 0.032 and the surviving fraction (PACLITAXEL [2]; 10 nM) was 0.259 ± 0.015. The surviving fraction (PACLITAXEL [2]; 50 nM) was 0.281 ± 0.062, the surviving fraction (PACLITAXEL [2]; 100 nM) was 0.275 ± 0.02 and the surviving fraction (PACLITAXEL [2]; 500 nM) was 0.244 ± 0.02. The surviving fraction (PACLITAXEL [2]; 1000 nM) was 0.218 ± 0.021, the surviving fraction ([3]; 0.5 nM) was 1.05 ± 0.16 and the surviving fraction ([3]; 1 nM) was 1.31 ± 0.3. The surviving fraction ([3]; 5 nM) was 1.2 ± 0.11, the surviving fraction ([3]; 10 nM) was 1.09 ± 0.082 and the surviving fraction ([3]; 50 nM) was 0.942 ± 0.11. The surviving fraction ([3]; 100 nM) was 0.993 ± 0.16, the surviving fraction ([3]; 500 nM) was 0.699 ± 0.059 and the surviving fraction ([3]; 1000 nM) was 0.721 ± 0.03. It also gave a surviving fraction (CAMPTOTHECIN [4]; 0.5 nM) of 0.308 ± 0.056, a surviving fraction (CAMPTOTHECIN [4]; 1 nM) of 0.492 ± 0.0071 and a surviving fraction (CAMPTOTHECIN [4]; 5 nM) of 0.336 ± 0.0083. For the same test system, the surviving fraction (CAMPTOTHECIN [4]; 10 nM) was 0.447 ± 0.071, the surviving fraction (CAMPTOTHECIN [4]; 50 nM) was 0.25 ± 0.036 and the surviving fraction (CAMPTOTHECIN [4]; 100 nM) was 0.263 ± 0.037. It also gave a surviving fraction (CAMPTOTHECIN [4]; 500 nM) of 0.0417 ± 0.0055, a surviving fraction (CAMPTOTHECIN [4]; 1000 nM) of 0.026 ± 0.002 and a surviving fraction (YM155 [5]; 0.5 nM) of 0.841 ± 0.053. The surviving fraction (YM155 [5]; 1 nM) was 0.83 ± 0.12, the surviving fraction (YM155 [5]; 5 nM) was 0.438 ± 0.017 and the surviving fraction (YM155 [5]; 10 nM) was 0.238 ± 0.036. It also gave a surviving fraction (YM155 [5]; 50 nM) of 0.0633 ± 0.027, a surviving fraction (YM155 [5]; 100 nM) of 0.025 ± 0.0036 and a surviving fraction (YM155 [5]; 500 nM) of 0.0197 ± 0.0021. For the same test system, the surviving fraction (YM155 [5]; 1000 nM) was 0.0227 ± 0.0011, the surviving fraction (GEFITINIB [6]; 0.5 nM) was 1.33 ± 0.14 and the surviving fraction (GEFITINIB [6]; 1 nM) was 1.37 ± 0.097. For the same test system, the surviving fraction (GEFITINIB [6]; 5 nM) was 1.39 ± 0.32, the surviving fraction (GEFITINIB [6]; 10 nM) was 1.19 ± 0.24 and the surviving fraction (GEFITINIB [6]; 50 nM) was 1.28 ± 0.066. For the same test system, the surviving fraction (GEFITINIB [6]; 100 nM) was 1.1 ± 0.12, the surviving fraction (GEFITINIB [6]; 500 nM) was 0.826 ± 0.15 and the surviving fraction (GEFITINIB [6]; 1000 nM) was 0.961 ± 0.094. It also gave a surviving fraction (OSI-906 [7]; 0.5 nM) of 0.714 ± 0.15, a surviving fraction (OSI-906 [7]; 1 nM) of 0.689 ± 0.0095 and a surviving fraction (OSI-906 [7]; 5 nM) of 0.767 ± 0.13. It also gave a surviving fraction (OSI-906 [7]; 10 nM) of 0.632 ± 0.057, a surviving fraction (OSI-906 [7]; 50 nM) of 0.845 ± 0.021 and a surviving fraction (OSI-906 [7]; 100 nM) of 0.793 ± 0.071. For the same test system, the surviving fraction (OSI-906 [7]; 500 nM) was 0.596 ± 0.084, the surviving fraction (OSI-906 [7]; 1000 nM) was 0.498 ± 0.048 and the surviving fraction (CELECOXIB [8]; 0.5 nM) was 1.37 ± 0.15. The surviving fraction (CELECOXIB [8]; 1 nM) was 1.15 ± 0.063, the surviving fraction (CELECOXIB [8]; 5 nM) was 1.29 ± 0.13 and the surviving fraction (CELECOXIB [8]; 10 nM) was 1.18 ± 0.26. It also gave a surviving fraction (CELECOXIB [8]; 50 nM) of 1.22 ± 0.063, a surviving fraction (CELECOXIB [8]; 100 nM) of 1.1 ± 0.12 and a surviving fraction (CELECOXIB [8]; 500 nM) of 1.64 ± 0.21. The surviving fraction (CELECOXIB [8]; 1000 nM) was 1.19 ± 0.062, the surviving fraction (CARBOPLATIN [9]; 0.5 nM) was 1.12 ± 0.12 and the surviving fraction (CARBOPLATIN [9]; 1 nM) was 1.07 ± 0.17. For the same test system, the surviving fraction (CARBOPLATIN [9]; 5 nM) was 1.15 ± 0.17, the surviving fraction (CARBOPLATIN [9]; 10 nM) was 1.17 ± 0.051 and the surviving fraction (CARBOPLATIN [9]; 50 nM) was 1.27 ± 0.12. For the same test system, the surviving fraction (CARBOPLATIN [9]; 100 nM) was 1.38 ± 0.35, the surviving fraction (CARBOPLATIN [9]; 500 nM) was 1.16 ± 0.2 and the surviving fraction (CARBOPLATIN [9]; 1000 nM) was 1.04 ± 0.17. The “area under dose-response curve” value [10] was 2.57, the “area under dose-response curve” value (PACLITAXEL [11]) was 1.08 and the “area under dose-response curve” value (CAMPTOTHECIN [12]) was 0.888. The “area under dose-response curve” value (YM155 [13]) was 0.928, the “area under dose-response curve” value (GEFITINIB [14]) was 4.01 and the “area under dose-response curve” value (OSI-906 [15]) was 2.28. For the same test system, the “area under dose-response curve” value (CELECOXIB [16]) was 4.18 and the “area under dose-response curve” value (CARBOPLATIN [17]) was 3.86.
